Source: publication PMC4525181, “Structural and dynamic insights into the energetics of activation loop rearrangement in FGFR1 kinase” (Nature Communications, 2015)
Values joined by “and” are separate entries in the source; they are usually repeats but may differ in a detail not shown here. Identical values can stand only once. Like-named read-outs stand apart in the source and are kept apart here.

What was measured:
[1] = tested on: N550K mutation in FGFR2; conditions: N550K mutant relative to wild-type, BaF3 cells; cited from earlier work
[2] = biological target: Asp641 (UniProt position 641, VMKIADFGLAR); experiment: kinetics (surface plasmon resonance); conditions: 298 K; PBS (pH 7.0-7.4) or 100 mM NaCl with 50 mM Bis-Tris (pH 5.5-6.5); PBS (pH 7.0-7.4) or 50 mM Bis-Tris (pH 5.5-6.5) with 100 mM NaCl. Both contain 50 µM EDTA, 0.05% Surfactant P20 and 1% DMSO.; Non-phosphorylated, initially ligand-free FGFR1 kinase domain immobilised on an NTA chip. The rate reports on the DFG-in to DFG-out transition required for ponatinib binding.
[3] = biological target: T1, FGFR1 kinase domain (Homo sapiens, UniProt P11362, C488A/C584S); experiment: Isothermal titration calorimetry (ITC) of inhibitors binding to FGFR1; conditions: for heat capacity change ΔCp: ITC titrations at 10-35 °C, slope of ΔH vs T; for -TΔS (ITC) / N (ITC stoichiometry) / ΔG (ITC) / ΔH (ITC): 298.15 K
T1 construct: Human FGFR1 consisting of residues Ala458-Glu765; made in house; host or cells: Escherichia coli, co-expressed with PTP1B
T1 sequence (P11362 458-765 C488A/C584S): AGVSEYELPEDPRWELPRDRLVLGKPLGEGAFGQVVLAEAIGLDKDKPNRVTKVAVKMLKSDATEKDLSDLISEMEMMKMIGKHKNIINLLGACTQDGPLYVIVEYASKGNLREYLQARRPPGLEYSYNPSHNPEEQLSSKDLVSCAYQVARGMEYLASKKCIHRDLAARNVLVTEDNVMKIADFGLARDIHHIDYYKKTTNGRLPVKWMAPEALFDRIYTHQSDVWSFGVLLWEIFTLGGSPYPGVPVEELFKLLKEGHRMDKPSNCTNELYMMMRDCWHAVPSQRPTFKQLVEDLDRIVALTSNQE
Description: ITC experiments were carried out using an ITC200 instrument (Microcal Inc., GE Healthcare)[59]. Final ligand concentrations were achieved by diluting ligand stock solutions in DMSO 1:50 (v/v) in the experimental buffer, resulting in a final DMSO concentration of 2% (v/v). Protein concentration was determined by measuring the absorbance at 280 nm. DMSO concentration in the protein solution was adjusted to 2% (v/v). ITC measurements were routinely performed at 25 °C in 20 mM Tris, pH 7.8, 20 mM NaCl, 2 mM TCEP and 2% DMSO (v/v). The titrations were performed on 10−20 μM FGFR1 in the 200 μl sample cell using 2 μl injections of 0.1−0.2 mM ligand solution every 120 s. To correct for heats of dilution and mixing, the final baseline consisting of small peaks of identical size at the end of the experiment was subtracted. Representative ITC titrations are shown in Supplementary Fig. 2. To determine the heat capacity ΔCp of ligands binding to FGFR1, ITC titrations were performed as described above at 10, 15, 20, 25, 30 and 35 °C. Binding enthalpies derived from ITC experiments were plotted as ΔH against T and ΔCp are given by the slope of the linear regression analysis according to equation (3) (Supplementary Fig. 7): […]

[4] = biological target: T1, FGFR1 kinase domain; experiment: SPR thermodynamic analysis (non-linear van't Hoff); type: binding; conditions: T0=298 K, SPR temperature dependence
Description: (§1) Binding affinities (KD) were therefore determined from dosage experiments and binding responses at equilibrium were fit to a 1:1 steady-state affinity model available within the Scrubber 2 software (BioLogic Software Ltd., Campbell, Australia).
(§2) Transition state thermodynamic quantities were determined from the kinetic association (kon) and dissociation (koff) rate constants as previously described[64] by plotting ln (kh/kBT) versus 1/T according to the linear Eyring equation (2).

[5] = biological target: T2, FGFR1 Asp623Ala mutant (Homo sapiens, UniProt P11362, C488A/C584S/D623A); experiment: SPR binding to Asp623Ala mutant of FGFR1 kinase domain; conditions: data not shown
T2 construct: a construct spanning residues Ala458 to Glu765 of human FGFR1; made in house; host or cells: Escherichia coli
T2 sequence (P11362 458-765 C488A/C584S/D623A): as the sequence (P11362 458-765 C488A/C584S) above, with D166A counted along it
Text: For our studies of the FGFR1 kinase domain, we have used a construct spanning residues Ala458 to Glu765 of human FGFR1 that contains two mutations (Cys488Ala and Cys584Ser) designed to stabilize the enzyme against covalent aggregation. The protein is non-phosphorylated after co-expression with PTP1B and purification from Escherichia coli. An additional mutation of the catalytic aspartate (Asp623Ala) was introduced for NMR studies to increase further the yield of stable isotope-labelled protein. […] In addition, we have confirmed using surface plasmon resonance (SPR) that binding parameters for a close analogue of the canonical FGFR1 inhibitor PD173074 (ref. [23]; henceforth referred to as PDA; Fig. 1a; Supplementary Fig. 1) are unaltered for the Asp623Ala mutant relative to the kinase-active form (data not shown).

[6] = biological target: T1, FGFR1 kinase domain; experiment: Transition state thermodynamics from linear Eyring plots (SPR rate constants vs temperature); type: binding; conditions: Eyring analysis
Description: as §1, §2
Here k is either the association rate constant (kon) or the dissociation rate constant (koff). ΔH and ΔS are the changes in […] enthalpy and entropy of binding, respectively, while the superscript ‘*' denotes that these refer to a transition state.

[7] = biological target: T1, FGFR1 kinase domain; experiment: SPR kinetic analysis of inhibitors binding to FGFR1 kinase domain
Description: The hexa-histidine tag was cleaved from protein by overnight treatment with TEV protease and concomitant dialysis, immediately after the IMAC step. Purified protein in a buffer comprising 20 mM Tris-HCl, pH 8.0, 20 mM NaCl, 2 mM TCEP, was snap frozen in liquid nitrogen and stored at −80 °C. For NMR studies, an additional mutation (Asp623Ala) was introduced to improve the yield of stable isotope-labelled FGFR1 kinase protein[22]. Uniform isotopic labelling was achieved by growing E. coli BL21 (DE3) Star cells in D2O-based M9 minimal medium supplemented with ^15NH4Cl (Cambridge Isotope Laboratories or Sigma Aldrich) together with U-[^1H,^13C]- or (for fully deuterated samples) U-[^2H,^13C]-glucose (Cambridge Isotope Laboratories or Sigma Aldrich) as sole nitrogen and carbon sources, respectively. Purification was by IMAC and ion exchange chromatography; the 6 × His tag was not cleaved from the protein used for NMR. Human Abl consisting of residues Ser248-Val534 with an engineered TEV-cleavable N-terminal 6 × His tag and mutation Asn355Ser was expressed and purified as described[50] with minor modifications. For biophysical studies, the 6 × His tag was retained intact for both kinases as it was used for immobilization on a nitrilotriacetic acid (NTA) sensor chip.
Non-phosphorylated, histidine-tagged FGFR1 and non-phosphorylated, histidine-tagged Abl were immobilized as the ligand onto NTA sensor chips using a capture coupling method. The NTA surface was first activated with 500 μM NiSO4 in immobilization buffer. The carboxymethyl dextran surface was then activated with a 1:1 ratio of 0.4 M EDC and 0.1 M NHS. Hexa-histidine-tagged protein was diluted into immobilization buffer to a concentration of 30 μg ml^−1, and immobilized onto the surface with a 7-min injection. Remaining activated groups were blocked with 0.1 M Tris, pH 8.0. […] PBS, pH 7.4, 50 μM EDTA and 0.05% Surfactant P20 (v/v) (for Abl supplemented with 10% glycerol (v/v)) were used as immobilization buffer. […] SPR experiments were performed using the Biacore 3000, Biacore S51 and Biacore T200 biosensors (GE Healthcare), with NTA and series S NTA sensor chips (GE Healthcare). All FGFR1 binding experiments were done using PBS (pH range 7.0–7.4), 50 μM EDTA, 0.05% Surfactant P20 (v/v) and 1% DMSO (v/v) or 50 mM Bis-Tris (pH range 5.5–6.5), 100 mM NaCl, 50 μM EDTA, 0.05% Surfactant P20 (v/v) and 1% DMSO (v/v), as running buffer. All Abl binding experiments were conducted using PBS, pH 7.4, 50 μM EDTA, 0.05% Surfactant P20 (v/v), 10% glycerol (v/v) and 1% DMSO (v/v) as running buffer. […] Finally, they were diluted 1:100 (v/v) in running buffer without DMSO to achieve the target concentration resulting in a final DMSO concentration of 1% (v/v).
The highest compound concentration varied, but for all analytes five sequential injections with constant injection time and a constant dilution factor were done. All analyte concentrations were injected in one cycle, one after the other for 120 s with a short dissociation phase in between injections (∼60 s) and with a longer dissociation phase at the end of the cycle (1,000 to 20,000 s that varied depending on the expected dissociation rate constant of the analyte). Zero-buffer blank injections were included for referencing. Biacore T200 evaluation software and BIAevaluation 4.1 software, respectively, were used for processing and analysing data. Rate constants were calculated globally from the obtained sensorgram data by fitting to a 1:1 interaction model. Representative sensorgrams are shown in Supplementary Fig. 6. Multi-cycle kinetic analysis was carried out as previously described. Binding affinities (KD) were calculated from the equation KD=koff/kon.

| heat capacity change ΔCp [3] [cal mol^−1 K^−1] | -TΔS (ITC) ([3]; ITC) [kcal/mol] | N (ITC stoichiometry) ([3]; ITC) | ΔG (ITC) ([3]; ITC) [kcal/mol] | ΔG0 van't Hoff [4] [kcal/mol] | −TΔS0 van't Hoff [4] [kcal/mol] | Compound | effect of FGFR2 N550K mutation on inhibitor potency [1] | ΔH (ITC) ([3]; ITC) | ΔH0 van't Hoff [4] | other results |
| --- | --- | --- | --- | --- | --- | --- | --- | --- | --- | --- |
|  |  |  |  |  |  | Cc1ccc(C(=O)Nc2ccc(CN3CCN(C)CC3)c(C(F)(F)F)c2)cc1C#Cc1cnc2cccnn12 [ponatinib] | enhanced inhibitory potency against this mutant relative to wild-type |  |  |  |
|  |  |  |  |  |  | CCN(CC)CCCCNc1ncc2cc(-c3cc(OC)cc(OC)c3)c(NC(=O)NC(C)(C)C)nc2n1 [PD173074] | confers resistance |  |  |  |
|  |  |  |  |  |  | Fibroblast growth factor receptor 1 (FGFR1) kinase domain (Homo sapiens; C488A;C584S) |  |  |  | pKa [2]: 6.25 |
| -172 | 2.7 ± 0.2 | 1.0±0.04 | -9.7 ± 0.1 | -9.5 ± 0.02 | 4.8 ± 0.8 | SU5402 |  | -12.4 kcal/mol and -12.4 ± 0.2 kcal/mol | -14.2 kcal/mol and -14.2 ± 0.8 kcal/mol |  |
| -359 | 1.1 ± 0.0 | 0.8±0.02 | -11.0 ± 0.0 | -11.1 ± 0.02 | 0.4 ± 0.8 | CCN(CC)CCCNc1ncc2cc(-c3cc(OC)cc(OC)c3)c(NC(=O)NC(C)(C)C)nc2n1 [PDA] |  | -12.1 kcal/mol and -12.1 ± 1.8 kcal/mol | -11.5 kcal/mol and -11.5 ± 0.8 kcal/mol | Kd ([3]; ITC, 298 K): 8.8 nM; binding parameters for Asp623Ala mutant relative to the kinase-active form [5]: unaltered; ΔG# ass (transition state free-energy barrier, association) ([6]; association phase): 8.7 ± 1.8 kcal/mol and 8.7 kcal/mol; ΔH# ass (transition state enthalpy, association) ([6]; association phase): 16.6 ± 1.3 kcal/mol and 16.6 kcal/mol; −TΔS# ass (transition state entropy, association) ([6]; association phase): -7.9 ± 1.3 kcal/mol and -7.9 kcal/mol; -TΔS# diss ([6]; dissociation phase): -5.3 ± 1.8 kcal/mol; ΔG# diss ([6]; dissociation phase): 19.5 ± 2.6 kcal/mol; ΔH# diss ([6]; dissociation phase): 24.8 ± 1.8 kcal/mol; KD, fold weaker in the presence of 1.2 M GdmCl ([7]; 1.2 M GdmCl vs absence of GdmCl): ~2 fold; association rate constant as a function of pH ([7]; SPR 298 K, pH decreased from 7.4 to 5.5): no dependence on pH; kon ([7]; SPR, 1.2 M GdmCl in PBS running buffer, read-out: association rate constant kon in the presence of 1.2 M GdmCl): 680000 M⁻¹ s⁻¹; koff ([7]; SPR, 1.2 M GdmCl in PBS running buffer, read-out: dissociation rate constant koff in the presence of 1.2 M GdmCl): 0.0018 s⁻¹; Kd ([7]; SPR, 298 K, pH 7.4, read-out: KD (koff/kon)): 5.7 nM; kon ([7]; SPR, 298 K, pH 7.4, read-out: association rate constant kon): 1.6e+06 M⁻¹ s⁻¹; koff ([7]; SPR, 298 K, pH 7.4, read-out: dissociation rate constant koff): 0.0092 s⁻¹ |
